Results from patent US11090304B2 (Amgen Inc., priority 2018, dated 2021).
Like-named read-outs stand apart in the source and are kept apart here.

Experiments:
[1] = biological target: GDP-bound KRAS protein (aa 1-169), containing both G12C and C118A amino acid substitutions (Homo sapiens, UniProt P01116, C118A/G12C); experiment: Coupled nucleotide exchange assay (SOS-mediated, AlphaScreen); type: biochemical; details: for Coupled exchange IC50 (5 min): 5 min compound pre-incubation
[2] = test system: Phosphorylation of ERK1/2 in MIA PaCa-2 cells; experiment: Phospho-ERK1/2 MSD assay in MIA PaCa-2 cells; type: cell-based
How it was run: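 MSD electrochemiluminescence readout of phospho-ERK1/2 in whole-cell lysates, IC50 by 4-parameter logistic fit. Compound titrations were applied for 2 or 4 h at 37 °C, 5% CO2, followed by 10 ng/mL EGF stimulation for 10 min before lysis.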

[3] = Homo sapiens, MIA PaCa-2, 2 h, read-out: p-ERK IC50 (2 h; MIA PaCa-2), 2 h compound treatment
[4] = read-out: p-ERK IC50 (2 h; MIA PaCa-2), 2 h compound treatment

GDP-bound KRAS protein (aa 1-169), containing both G12C and C118A amino acid substitutions, sequence (P01116 1-169 isoform P01116-2 G12C/C118A): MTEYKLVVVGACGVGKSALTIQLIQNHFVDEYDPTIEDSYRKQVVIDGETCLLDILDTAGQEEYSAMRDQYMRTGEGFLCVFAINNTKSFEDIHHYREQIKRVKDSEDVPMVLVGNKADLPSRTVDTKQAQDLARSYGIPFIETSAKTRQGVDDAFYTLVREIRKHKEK

Coupled exchange IC50 (5 min) [1]	IC50 [2, 3] [nM]	IC50 [2, 4] [nM]	Coupled exchange IC50 (2 h) ([1]; 2 h compound pre-incubation) [nM]	IC50 ([2]; read-out: p-ERK IC50 (4 h; MIA PaCa-2), 4 h compound treatment) [nM]	SMILES
0.094 | nda μM	80	–	–	–	C=CC(=O)N1CCN(c2nc(=O)n(-c3c(C)ccnc3C(C)C)c3nc(-c4ccccc4F)c(Cl)cc23)[C@@H](C(F)F)C1 (single isomer, unassigned) [Example 78-3-2]
0.141 | nda μM	246	–	–	–	C=CC(=O)N1CCN(c2nc(=O)n(-c3c(C)ccnc3C(C)C)c3nc(-c4ccccc4F)c(Cl)cc23)[C@H](C(F)F)C1 (single isomer, unassigned) [Example 78-3]
0.349 | nda μM	2610	–	–	–	C=CC(=O)N1CCN(c2nc(=O)n(-c3c(C)ccnc3C(C)C)c3nc(-c4ccccc4F)c(Cl)cc23)C(CF)C1 (single isomer, unassigned) [Example 78-5, (M)-6-chloro-4-(2-(fluoromethyl)-4-(2-propenoyl)-1-piperazinyl)-7-(2-fluorophenyl)-1-(4-methyl-2-(2-propanyl)-3-pyridinyl)pyrido[2,3-d]pyrimidin-2(1H)-one]
0.034 | nda μM	23	–	–	–	C=CC(=O)N1C[C@@H](C)N(c2nc(=O)n(-c3c(C)ccnc3C(C)C)c3nc(-c4ccccc4F)c(Cl)cc23)[C@@H](C)C1 (single isomer, unassigned) [Example 78-7, (M)-6-chloro-4-(cis-2,6-dimethyl-4-(2-propenoyl)-1-piperazinyl)-7-(2-fluorophenyl)-1-(4-methyl-2-(2-propanyl)-3-pyridinyl)pyrido[2,3-d]pyrimidin-2(1H)-one]
0.026 | nda μM	10	–	–	–	C=CC(=O)N1C[C@H](C)N(c2nc(=O)n(-c3c(C)ccnc3C(C)C)c3nc(-c4ccccc4F)c(Cl)cc23)[C@@H](C)C1 (single isomer, unassigned) [Example 78-8]
0.515 | nda μM	348	–	–	–	C=CC(=O)N1CCN(c2nc(=O)n(-c3c(C)ccnc3C(C)C)c3nc(-c4ccccc4F)c(Cl)cc23)C(C(F)(F)F)C1 (single isomer, unassigned) [Example 78-9, (M)-6-chloro-7-(2-fluorophenyl)-1-(4-methyl-2-(2-propanyl)-3-pyridinyl)-4-(4-(2-propenoyl)-2-(trifluoromethyl)-1-piperazinyl)pyrido[2,3-d]pyrimidin-2(1H)-one]
0.133 | nda μM	81	–	–	–	C=CC(=O)N1CCN(c2nc(=O)n(-c3c(C)ccnc3C(C)C)c3nc(-c4ccccc4F)c(Cl)cc23)[C@@H](CO)C1 (single isomer, unassigned) [Example 78-14]
0.124 | nda μM	61	–	–	–	C=CC(=O)N1CCN(c2nc(=O)n(-c3c(C)ccnc3C(C)C)c3nc(-c4ccccc4F)c(Cl)cc23)CC1 (single isomer, unassigned) [Example 78-15, (M)-6-chloro-7-(2-fluorophenyl)-1-(4-methyl-2-(2-propanyl)-3-pyridinyl)-4-(4-(2-propenoyl)-1-piperazinyl)pyrido[2,3-d]pyrimidin-2(1H)-one]
0.044 | nda μM	–	29	–	–	C=CC(=O)N1CCN(c2nc(=O)n(-c3c(C)cc(CN(C)C)cc3C(C)C)c3nc(-c4ccccc4F)c(Cl)cc23)[C@@H](C)C1 (single isomer, unassigned) [Example 80-1-1]
0.556 | nda μM	–	236	–	–	C=CC(=O)N1CCN(c2nc(=O)n(-c3c(C)cc(CN(C)C)cc3C(C)C)c3nc(-c4ccccc4F)c(Cl)cc23)[C@@H](C)C1 (single isomer, unassigned) [Example 80-1-2]
0.048 | nda μM	47	–	–	–	C=CC(=O)N1CCN(c2nc(=O)n(-c3c(C)cc(CO)cc3C(C)C)c3nc(-c4ccccc4F)c(Cl)cc23)[C@@H](C)C1 (single isomer, unassigned) [Example 80-2-2]
0.096 | nda μM	239	–	–	–	C=CC(=O)N1CCN(c2nc(=O)n(-c3c(C)ccnc3C(C)C)c3nc(-c4c(F)ccc5[nH]ncc45)c(Cl)cc23)[C@@H](C)C1 (single isomer, unassigned) [Example 82-2]
0.035 | nda μM	84	–	–	–	C=CC(=O)N1CCN(c2nc(=O)n(-c3c(C(C)C)ncc(O)c3C)c3nc(-c4ccccc4F)c(Cl)cc23)[C@@H](C)C1 (single isomer, unassigned) [Example 83-2]
0.058 | nda μM	43	–	–	–	C=CC(=O)N1CCN(c2nc(=O)n(-c3c(CO)ccnc3C(C)C)c3nc(-c4ccccc4F)c(Cl)cc23)[C@@H](C)C1 (single isomer, unassigned) [Example 84-2]
0.151 µM	–	–	175	111	C=CC(=O)N1CCN(c2nc(=O)n(-c3ccccc3C(C)C)c3c(C)c(-c4c(O)cccc4F)c(Cl)cc23)[C@@H](C)C1 (single isomer, unassigned) [Example 90-2]
0.193 | nda μM	155	–	–	–	C=CC(=O)N1CCN(c2nc(=O)n(-c3ccccc3C(C)C)c3nc(-c4c(F)cccc4C#N)c(Cl)cc23)[C@@H](C)C1 (single isomer, unassigned) [Example 98-1]
0.182 | nda μM	211	–	–	–	C=CC(=O)N1CCN(c2nc(=O)n(-c3c(C)cccc3C(C)C)c3nc(-c4ccccc4F)c(C)cc23)[C@@H](C)C1 (single isomer, unassigned) [Example 102-2]
0.071 | nda μM	247	–	–	–	C=CC(=O)N1CCN(c2nc(=O)n(-c3ccccc3C(C)C)c3cc(-c4ccccc4F)c(Cl)nc23)[C@@H](C)C1 (single isomer, unassigned) [Example 110-2]
0.073 | nda μM	47	–	–	–	C=CC(=O)N1CCN(c2nc(=O)n(-c3c(C(C)C)ncnc3N(C)C)c3nc(-c4ccccc4F)c(Cl)cc23)[C@@H](C)C1 (single isomer, unassigned) [Example 140-1]
0.029 | nda μM	29	–	–	–	C=CC(=O)N1CCN(c2nc(=O)n(-c3c(C(N)=O)cccc3C(C)C)c3nc(-c4ccccc4F)c(Cl)cc23)[C@@H](C)C1 (single isomer, unassigned) [Example 142-2]
2.72 | nda μM	–	3540	–	–	C=CC(=O)N1CCN(c2nc(=O)n(-c3c(C)ccnc3C(C)C)c3nc(-c4ccccc4F)c(C)nc23)[C@@H](C)C1 (single isomer, unassigned) [Example 143-1]
2.43 | nda μM	–	397	–	–	C=CC(=O)N1CCN(c2nc(=O)n(-c3c(C)ccnc3C(C)C)c3nc(-c4ccccc4F)c(C)nc23)[C@@H](C)C1 (single isomer, unassigned) [Example 143-2]
0.038 | nda μM	43	–	–	–	C=CC(=O)N1CCN(c2nc(=O)n(-c3c(N)cccc3C(C)C)c3nc(-c4ccccc4F)c(Cl)cc23)[C@@H](C)C1 (single isomer, unassigned) [Example 155-1]
0.947 | nda μM	999	–	–	–	C=CC(=O)N1CCN(c2nc(=O)n(-c3c(C)cccc3C(C)C)c3nc(-c4c(C)ccc5[nH]ncc45)c(F)cc23)[C@@H](C)C1 [68-2, 6-fluoro-7-(5-methyl-1H-indazol-4-yl)-1-(2-methyl-6-(2-propanyl)phenyl)-4-((2S)-2-methyl-4-(2-propenoyl)-1-piperazinyl)pyrido[2,3-d]pyrimidin-2(1H)-one]
0.11 | nda μM	97	–	–	–	C=CC(=O)N1CCN(c2nc(=O)n(-c3c(C)cc(CO)cc3C(C)C)c3nc(-c4ccccc4F)c(Cl)cc23)[C@@H](C)C1 [80-2, 6-chloro-7-(2-fluorophenyl)-1-(4-(hydroxymethyl)-2-methyl-6-(2-propanyl)phenyl)-4-((2S)-2-methyl-4-(2-propenoyl)-1-piperazinyl) pyrido[2,3-d] pyrimidin-2(1H)-one]
0.564 | nda μM	347	–	–	–	C=CC(=O)N1CCN(c2nc(=O)n(-c3ncccc3CC)c3nc(-c4ccccc4F)c(Cl)cc23)[C@@H](C)C1 [Example 54-15, 6-chloro-1-(3-ethyl-2~ pyridinyl)-7-(2-fluorophenyl)-4-((2S)-2-methyl-4-(2-propenoyl)-1-piperazinyl) pyrido[2,3-d]pyrimidin-2(1H)-one]
0.149 | nda μM	149	–	–	–	C=CC(=O)N1CCN(c2nc(=O)n(-c3ncccc3CC)c3nc(-c4c(O)cccc4F)c(Cl)cc23)[C@@H](C)C1 [Example 54-16, 6-chloro-1-(3-ethyl-2-pyridinyl)-7-(2-fluoro-6-hydroxyphenyl)-4-((2S)-2-methyl-4-(2-propenoyl)-1-piperazinyl) pyrido[2,3-d]pyrimidin-2(1H)-one]
0.087 | nda μM	81	–	–	–	C=CC(=O)N1CCN(c2nc(=O)n(-c3c(C(C)C)ccnc3C)c3nc(-c4ccccc4F)c(Cl)cc23)[C@@H](C)C1 [Example 54-18, 6-chloro-7-(2-fluorophenyl)-1-(2-methyl-4-(2-propanyl)-3-pyridinyl)-4-((2S)-2-methyl-4-(2-propenoyl)-1-piperazinyl) pyrido[2,3-d]pyrimidin-2(1H)-one]

SMILES	Coupled exchange IC50 (5 min) [1]	IC50 [2, 3] [nM]	IC50 [2, 4] [nM]	Coupled exchange IC50 (2 h) ([1]; 2 h compound pre-incubation) [nM]	IC50 ([2]; read-out: p-ERK IC50 (4 h; MIA PaCa-2), 4 h compound treatment) [nM]
C=CC(=O)N1[C@@H]2CCC[C@H]1CN(c1nc(=O)n(-c3c(C)ccnc3C(C)C)c3nc(-c4ccccc4F)c(Cl)cc13)C2 (single isomer, unassigned) [Example 78-2, (M)-6-chloro-7-(2-fluorophenyl)-1-(4-methyl-2-(2-propanyl)-3-pyridinyl)-4-(9-(2-propenoyl)-3,9-diazabicyclo[3.3.1]nonan-3-yl)pyrido[2,3-d]pyrimidin-2(1H)-one]	0.436 | nda μM	376	–	–	–
